Structures can show the parent of a compound that is named as a salt.
Target: T1, MerTK (Homo sapiens, UniProt Q12866)
T1 construct: endogenous in cells; host or cells: Jurkat cells
T1 sequence (Q12866 21-999): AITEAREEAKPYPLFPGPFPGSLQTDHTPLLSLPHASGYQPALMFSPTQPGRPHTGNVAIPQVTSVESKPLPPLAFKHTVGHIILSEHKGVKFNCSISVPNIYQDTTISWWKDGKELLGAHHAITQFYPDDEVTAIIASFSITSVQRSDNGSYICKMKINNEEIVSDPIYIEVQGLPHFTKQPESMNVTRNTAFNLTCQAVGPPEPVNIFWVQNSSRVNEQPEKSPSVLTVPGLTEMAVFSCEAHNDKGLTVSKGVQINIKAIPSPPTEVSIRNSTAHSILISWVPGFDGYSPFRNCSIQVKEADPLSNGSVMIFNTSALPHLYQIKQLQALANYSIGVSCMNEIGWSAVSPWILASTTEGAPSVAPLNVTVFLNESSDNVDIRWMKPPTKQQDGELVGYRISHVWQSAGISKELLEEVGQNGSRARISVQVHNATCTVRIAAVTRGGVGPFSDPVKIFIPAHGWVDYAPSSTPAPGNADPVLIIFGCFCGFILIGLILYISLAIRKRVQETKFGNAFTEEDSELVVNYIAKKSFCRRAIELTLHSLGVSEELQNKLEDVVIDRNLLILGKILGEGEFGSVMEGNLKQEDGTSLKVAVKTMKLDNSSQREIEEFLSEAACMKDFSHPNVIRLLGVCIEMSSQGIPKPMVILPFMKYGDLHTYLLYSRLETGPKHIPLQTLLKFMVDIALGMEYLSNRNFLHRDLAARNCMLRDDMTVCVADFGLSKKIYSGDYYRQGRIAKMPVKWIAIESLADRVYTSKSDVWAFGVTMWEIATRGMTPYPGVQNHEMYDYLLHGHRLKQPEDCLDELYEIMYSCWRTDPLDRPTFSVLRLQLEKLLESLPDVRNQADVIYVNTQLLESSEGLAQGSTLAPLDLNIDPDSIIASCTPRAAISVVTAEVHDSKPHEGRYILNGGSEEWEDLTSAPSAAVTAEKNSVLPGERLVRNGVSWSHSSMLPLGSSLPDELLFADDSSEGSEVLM
Assay: MerTk degradation in Jurkat cells (Western blot)
Type: cell-based
Conditions: Jurkat, 4 h, 0.001-1 μM, 4 hour-incubation at 37° C., read-out: Jurkat Max % MerTK Degradation
Summary of the method: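 MerTK degradation was read by near-infrared Western blot, normalized to actin, in BCA-quantified lysates of Jurkat cells exposed to 0.001-1 μM compound for 4 h at 37 °C.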

| Compound | Dmax [%] |
| --- | --- |
| Cn1c(=O)n(C2CCC(=O)NC2=O)c2ccc(CN3CCC(OCCN4CCN(Cc5ccc(-c6cn([C@H]7CC[C@H](O)CC7)c7nc(NCCC(F)(F)F)ncc67)cc5)CC4)C3)cc21 (stereo partly drawn) [I-98, 3-(3-methyl-2-oxo-5-[[3-(2-[4-[(4-[7-[trans-4-hydroxycyclohexy1]-2-[(3,3,3-trifluoropropyl)amino]-7H-pyrrolo[2,3-d]pyrimidin-5-y1]phenyl)methyl]piperazin-1-yl]ethoxy)pyrrolidin-1-y1]methyl]-2,3-dihydro-1H-1,3-benzodiazol-1-yl)piperidine-2,6-dione; formic acid] | > 50 |
| O=C1CC[C@H](n2c3ccc(NCCOCCOCCNCc4ccc(-c5cn([C@H]6CC[C@H](O)CC6)c6nc(NCCC(F)(F)F)ncc56)cc4)cc3c3cccnc32)C(=O)N1 [I-99, 3-[6-[11-(4-[7-[trans-4-hydroxycyclohexyl]-2-[(3,3,3-trifluoropropyl)amino]-7H-pyrrolo[2,3-d]pyrimidin-5-yl]phenyl)-4,7-dioxa-1,10-diazaundecan-1-y1]-9H-pyrido[2,3-b]indol-9-yl]piperidine-2,6-dione; trihydrochloride] | > 50 |
| Cn1c(=O)n([C@H]2CCC(=O)NC2=O)c2ccc(CCCOCCCN3CCN(Cc4ccc(-c5cn([C@H]6CC[C@H](O)CC6)c6nc(NCC(F)F)ncc56)cc4)CC3)cc21 [I-100, 3-[5-[3-(3-[4-[(4-[2-[(2,2-difluoroethyl)amino]-7-[trans-4-hydroxycyclohexyl]-7H-pyrrolo[2,3-d]pyrimidin-5-yl]phenyl)methyl]piperazin-1-yl]propoxy)propyl]-3-methyl-2-oxo-2,3-dihydro-1H-1,3-benzodiazol-1-yl]piperidine-2,6-dione; formic acid] | > 50 |
| C[C@H](c1ccc(-c2cn([C@H]3CC[C@H](O)CC3)c3nc(NCCC(F)(F)F)ncc23)cc1)N1CCN(CCCOCCCc2ccc3c(c2)n(C)c(=O)n3C2CCC(=O)NC2=O)CC1 (some centres unmarked) [I-101] | > 50 |
| C[C@@H](c1ccc(-c2cn([C@H]3CC[C@H](O)CC3)c3nc(NCCC(F)(F)F)ncc23)cc1)N1CCN(CCCOCCCc2ccc3c(c2)n(C)c(=O)n3C2CCC(=O)NC2=O)CC1 (stereo partly drawn) [I-102, 3-[3-methyl-2-oxo-5-[3-(3-[4-[(1S)-1-(4-[7-[trans-4-hydroxycyclohexy1]-2-[(3,3,3-trifluoropropyl)amino]-7H-pyrrolo[2,3-d]pyrimidin-5-yl]phenyl)ethyl]piperazin-1-yl]propoxy)propyl]-2,3-dihydro-1H-1,3-benzodiazol-1-yl]piperidine-2,6-dione; formic acid] | > 50 |
| CCCCNc1ncc2c(-c3ccc([C@@H](C)N4CCN(CCCOCCCc5ccc6c(c5)n(C)c(=O)n6C5CCC(=O)NC5=O)CC4)cc3)cn([C@H]3CC[C@H](O)CC3)c2n1 (stereo partly drawn) [I-103, 3-[5-[3-(3-[4-[(1R)-1-[4-[2-(butylamino)-7-[trans-4-hydroxycyclohexyl]-7H-pyrrolo[2,3-d]pyrimidin-5-yl]phenyl]ethyl]piperazin-1-yl]propoxy)propyl]-3-methyl-2-oxo-2,3-dihydro-1H-1,3-benzodiazol-1-yl]piperidine-2,6-dione] | > 50 |
| CCCCNc1ncc2c(-c3ccc([C@H](C)N4CCN(CCCOCCCc5ccc6c(c5)n(C)c(=O)n6C5CCC(=O)NC5=O)CC4)cc3)cn([C@H]3CC[C@H](O)CC3)c2n1 (stereo partly drawn) [I-104, 3-[5-[3-(3-[4-[(1S)-1-[4-[2-(butylamino)-7-[trans-4-hydroxycyclohexyl]-7H-pyrrolo[2,3-d]pyrimidin-5-yl]phenyl]ethyl]piperazin-1-yl]propoxy)propyl]-3-methyl-2-oxo-2,3-dihydro-1H-1,3-benzodiazol-1-y1]piperidine-2,6-dione] | > 50 |

Next, values leading:

| Dmax [%] | Compound |
| --- | --- |
| 20 to 50 | CN1C(=O)CC[C@H](n2c(=O)n(C)c3cc(CCCOCCOCCN4CCN(Cc5ccc(-c6cn([C@H]7CC[C@H](O)CC7)c7nc(NCCC(F)(F)F)ncc67)cc5)CC4)ccc32)C1=O [I-105, 1-methyl-3-(3-methyl-2-oxo-5-[3-[2-(2-[4-[(4-[7-[trans-4-hydroxycyclohexyl]-2-[(3,3,3-trifluoropropyl)amino]-7H-pyrrolo[2,3-d]pyrimidin-5-yl]phenyl)methyl]piperazin-1-yl]ethoxy)ethoxy]propyl]-2,3-dihydro-1H-1,3-benzodiazol-1-yl)piperidine-2,6-dione] |
| > 50 | C[C@H]1CN(Cc2ccc(-c3cn([C@H]4CC[C@H](O)CC4)c4nc(NCCC(F)(F)F)ncc34)cc2)CCN1CCCOCCCc1ccc2c(c1)n(C)c(=O)n2C1CCC(=O)NC1=O (stereo partly drawn) [I-106, 3-[3-methyl-5-(3-[3-[(2S)-2-methyl-4-[(4-[7-[trans-4-hydroxycyclohexy1]-2-[(3,3,3-trifluoropropyl)amino]-7H-pyrrolo[2,3-d]pyrimidin-5-yl]phenyl)methyl]piperazin-1-yl]propoxy]propyl)-2-oxo-2,3-dihydro-1H-1,3-benzodiazol-1-yl]piperidine-2,6-dione; formic acid] |
| > 50 | Cn1c(=O)n([C@H]2CCC(=O)NC2=O)c2ccc(CCCOCCCN3CCN(Cc4ccc(-c5cn([C@H]6CC[C@H](O)CC6)c6nc(NC7CC7)ncc56)cc4)CC3)cc21 [I-108, 3-[5-(3-[3-[4-([4-[2-(cyclopropylamino)-7-[trans-4-hydroxycyclohexyl]-7H-pyrrolo[2,3-d]pyrimidin-5-yl]phenyl]methyl)piperazin-1-yl]propoxy]propyl)-3-methyl-2-oxo-2,3-dihydro-1H-1,3-benzodiazol-1-yl]piperidine-2,6-dione; bis(formic acid)] |
| < 20 | Cn1c(=O)n([C@H]2CCC(=O)NC2=O)c2ccc(CN3CC(OCCN4CCN(Cc5ccc(-c6cn([C@H]7CC[C@H](O)CC7)c7nc(NCCC(F)(F)F)ncc67)cc5)CC4)C3)cc21 [I-109, 3-(3-methyl-2-oxo-5-[[3-(2-[4-[(4-[7-[trans-4-hydroxycyclohexyl]-2-[(3,3,3-trifluoropropyl)amino]-7H-pyrrolo[2,3-d]pyrimidin-5-y1]phenyl)methyl]piperazin-1-yl]ethoxy)azetidin-1-yl]methyl]-2,3-dihydro-1H-1,3-benzodiazol-1-y1)piperidine-2,6-dione] |
| > 50 | C[C@@H](CC(F)(F)F)Nc1ncc2c(-c3ccc(CN4CCN(CCCOCCCc5ccc6c(c5)n(C)c(=O)n6C5CCC(=O)NC5=O)CC4)cc3)cn([C@H]3CC[C@H](O)CC3)c2n1 (stereo partly drawn) [I-110, 3-[3-methyl-2-oxo-5-[3-(3-[4-[(4-[7-[(1r,4r)-4-hydroxycyclohexyl]-2-[[(2S)-4,4,4-trifluorobutan-2-yl]amino]-7H-pyrrolo[2,3-d]pyrimidin-5-yl]phenyl)methyl]piperazin-1-yl]propoxy)propyl]-2,3-dihydro-1H-1,3-benzodiazol-1-y1]piperidine-2,6-dione] |
| > 50 | C[C@H](CC(F)(F)F)Nc1ncc2c(-c3ccc(CN4CCN(CCCOCCCc5ccc6c(c5)n(C)c(=O)n6C5CCC(=O)NC5=O)CC4)cc3)cn([C@H]3CC[C@H](O)CC3)c2n1 (some centres unmarked) [I-111] |
| < 20 | Cn1c(=O)n([C@H]2CCC(=O)NC2=O)c2ccc(CCCN3CC(CCN4CCN(Cc5ccc(-c6cn([C@H]7CC[C@H](O)CC7)c7nc(NCCC(F)(F)F)ncc67)cc5)CC4)C3)cc21 [I-112, 3-(3-methyl-2-oxo-5-[3-[3-(2-[4-[(4-[7-[trans-4-hydroxycyclohexy1]-2-[(3,3,3-trifluoropropyl)amino]-7H-pyrrolo[2,3-d]pyrimidin-5-yl]phenyl)methyl]piperazin-1-yl]ethyl)azetidin-1-yl]propyl]-2,3-dihydro-1H-1,3-benzodiazol-1-y1)piperidine-2,6-dione] |

— US20260042762A1 (Kymera Therapeutics, Inc., priority 2018, published 2026)
